Structures are written as SMILES.

In one data set the test system is A375 melanoma cells. Description: Antiproliferation assay in A375 cell line by CellTiter Glo. To be noted: Homo sapiens, A-375, 72 hours or 144 hours. Type of data set: cell-based. On the procedure: (§1) In vitro anti-proliferation study of test compounds in A375 cell line by CellTiter Glo. The cells were routinely maintained as a monolayer culture in corresponding culture medium, at 37° C. with 5% CO2 in air.
(§2) Exponential growth cells were harvested by trypsin-EDTA digestion. Cell pellet was re-suspended in fresh culture medium, and the concentration adjusted as needed (the cell density per well was listed in following form). The cell viability was over 98% by Trypan blue staining. Cells were incoluated into 96 wells plates according to the plate map (90 μL/well). Plates were incubated at 37° C. and 5% CO2 overnight. The next day, the 10×compound containing medium was prepared according to the plate map. 10 μL of 10×compound containing medium was transferred into each well of the assay plates (the final DMSO concentration was 0.5%). The medium was gently mixed and incubated at 37° C. and 5% CO2 for another 72 hours or 144 hours.
(§3) Reagent was prepared according to the manufacture's instruction. 50 μL CellTiter-Glo Reagent were added in each well. Contents were mixed for 2 minutes on an orbital shaker to induce cell lysis. The plate was incubated at room temperature for 10 minutes to stabilize luminescent signal. 100 μL of reaction contents were transferred of each well from the clear plates into white walled/white opaque 96-well plates. Luminescence was recorded on Envision.
(§4) Using the luminescence measurements [time zero (T0), control growth (C), and test growth in the presence of drug at the six concentration levels (Ti)], the percentage growth was calculated at each of the drug concentrations levels.
(§5) Percentage growth inhibition (GI) was calculated as: GI (%)=[(Ti−T0)/(C-T0)]×100 for concentrations for which Ti>=T0, and GI (%)=[(Ti−T0)/T0]×100 for concentrations for which Ti<T0. Data were analyzed using the XLFit (Excel) tool, fitting to a 4-parameter equation to generate concentration response curves. Concentration of compound that inhibits 50% of control cell growth (GI50) was back-interpolated when y=50% of net growth of DMSO treated control wells using nonlinear regression with the equation: f(x) 205 [fit=(A+((B−A)/(1+((C/x)^D))))], where A is the minimum response (Ymin), B is the maximum response (Ymax), C is the inflection point of the curve (Re GI50) and D is the Hill coefficient. Growth inhibition of 50% (GI50) was calculated at the 50% Growth inhibition on the curve. Index values were the sum of Inhibition rate (IR) at each tested compound concentration.

Another data set relates to HT-29 colon cancer cells. As to the kind of experiment: Antiproliferation assay in HT-29 cells (CellTiter Glo). Type of data set: cell-based. As to conditions: Homo sapiens, 72 hours or 144 hours. On the procedure:
[The source words this procedure for another cell line and reports this cell line under the same test.] as §1, §2, §3, §4, §5
(In general: Cellular ATP, detected with luciferase, serves as a proxy for viable cell number.)

A further data set deals with P-glycoprotein (MDR1). Description: MDCK-MDR1 permeability assay. Type of data set: in vitro ADME, canine. To be noted: dog; for efflux ratio at 120 min: MDCK-MDR1, Papp(B−A)/Papp(A−B); for Papp A→B at 120 min: MDCK-MDR1, apical to basolateral; for Papp A→B at 120 min / Papp B→A at 120 min: 1-30 μM; for Papp B→A at 120 min: MDCK-MDR1, basolateral to apical. Here is the method: MDCK-MDR1 cells originated from transfection of Madin Darby canine kidney (MDCK) cells with the MDR1 gene, the gene encoding for the efflux protein, P-glycoprotein. This cell line is ideal for identifying substrates of P-gp, with or without an inhibitor. The cells were seeded on a Multiscreen™ plate to form a confluent monolayer over 4 days prior to the experiment. On day 4, the test compound (1-30 μM concentration) was added to the apical side of the membrane and the transport of the compound across the monolayer was monitored over a 120 minutes time period. To study drug efflux, it was also necessary to investigate transport of the compound from the basolateral compartment to the apical compartment and calculate an efflux ratio.
(§6) The permeability coefficient (Papp) was calculated from the following equation: […]
where dQ/dt is the rate of permeation of the drug across the cells, C0 is the donor compartment concentration at time zero and A is the area of the cell monolayer.
An efflux ratio was calculated from the mean apical to basolateral (A−B) Papp data and basolateral to apical (B−A) Papp data.
Efflux Ratio=Papp(B−A)/Papp(A−B)

The nature of data set [1]: Caco-2 permeability assay. As to conditions: human; for efflux ratio at 120 min: Caco-2; for Papp A→B at 120 min: Caco-2, apical to basolateral; for Papp A→B at 120 min / Papp B→A at 120 min: 1-30 uM; for Papp B→A at 120 min: Caco-2, basolateral to apical. The class given is in vitro ADME. On the procedure: Caco-2 cells are widely used as an in vitro assay to measure the permeability of a drug compound. The Caco-2 cell line is derived from a human colorectal carcinoma, and when cultured, the cells spontaneously differentiate into monolayers of polarized enterocytes. Caco-2 cells express P-glycoprotein and breast cancer resistance protein, two of the most relevant cell membrane active transporters that affect drug compound's permeability into cells and blood brain barrier.
The cells were seeded on Millipore Millicell plates and formed a confluent monolayer over 20 days prior to the experiment. On day 20, the test compound (1-30 uM concentration) was added to the apical side of the membrane and the transport of the compound across the monolayer was monitored over a 120 minutes time period. To study drug efflux, it was also necessary to investigate transport of the compound from the basolateral compartment to the apical compartment.
as §6
where dQ/dt is the rate of permeation of the drug across the cells, C0 is the donor compartment concentration at time zero and A is the area of the cell monolayer. C0 is obtained from analysis of the dosing solution at the start experiment.

A short description of data set [2]: Mouse pharmacokinetics study. The class given is in vivo. As to conditions: CD-1 mice; for F / AUC / Cmax / Tmax: PO 25 mg/kg; for Vd / half-life / clearance / AUC / Cmax / Tmax: mouse, plasma; for Vd / half-life / clearance: IV 5 mg/kg; for half-life: 20% Hydroxypropyl-beta-cyclodextrin; for clearance: read-out: Clp. From the text: The pharmacokinetic properties of Compounds 5 and 6 was studied in CD-1 mice via intravenous and oral administration by using a standard protocol. The test articles were formulated in 20% Hydroxypropyl-beta-cyclodextrin, either as a clear solution or fine suspension.

Broadly, the GI50 is the concentration at which growth is held to half of that of the control. Low values mean greater sensitivity of the cells, high ones lower sensitivity of the cells. One may read the efflux ratio as a quotient of directional permeabilities that is used to spot active efflux. For orientation: Papp A→B means how fast a substance crosses the layer from the apical side. Usually Papp B→A stands for how fast a substance crosses the layer from the basolateral side. The term Vd denotes the apparent volume that relates the amount in the body to the concentration in plasma or blood. High values mean extensive tissue distribution, low ones confinement near the circulation. A word on the half-life: it is how long it takes for the measured level to halve. Read a high half-life as slow decline. As a reminder, the AUC is concentration integrated over time. A high value points to more exposure. As usually defined, the Cmax is the highest concentration seen after dosing. As usually defined, the Tmax is the time from dosing to the highest level. Turning to `CCN1CC(NC(=O)c2c(F)cncc2Nc2ccc(I)cc2F)C1` [Compound 6, N-(1-ethylazetidin-3-yl)-3-fluoro-5-((2-fluoro-4-iodophenyl)amino)isonicotinamide], the GI50 in the data set with A375 melanoma cells is < 100 nM. Moreover, the GI50 in the data set with HT-29 colon cancer cells was < 100 nM. For the same compound, in the data set on P-glycoprotein (MDR1), the efflux ratio at 120 min is 0.53, the Papp A→B at 120 min was 34.1 ×10⁻⁶ cm/s and the Papp B→A at 120 min was 18 ×10⁻⁶ cm/s. For the same compound, in data set [1], the efflux ratio at 120 min was 0.47, the Papp A→B at 120 min worked out at 89.3 ×10⁻⁶ cm/s and the Papp B→A at 120 min was 42.3 ×10⁻⁶ cm/s. Also, in data set [2], the F is recorded as 62.1 ± 11.4%, the Vd stood at 4.2 ± 0.33 L/kg, the half-life is 37.5 ± 2.58 min and the clearance was found to be 77.8 ± 8 mL/min/kg. Also, in data set [2], the AUC was 3160 ± 641 ng·h/mL, the Cmax was determined as 1070 ± 328 ng/mL and the Tmax is 30 min.

Turning to `O=C(NC1CNC1)c1c(F)cc(F)cc1Nc1ccc(I)cc1F` [Compound 1, N-(azetidin-3-yl)-2,4-difluoro-6-((2-fluoro-4-iodophenyl)amino)benzamide], the GI50 was 100 to 1000 nM with A375 melanoma cells and > 1000 nM in the data set on HT-29 colon cancer cells.

Take `CC(=O)N1CC(NC(=O)c2c(F)cncc2Nc2ccc(I)cc2F)C1` [Compound 20, N-(1-acetylazetidin-3-yl)-3-fluoro-5-((2-fluoro-4-iodophenyl)amino)isonicotinamide]: the GI50 in the data set with A375 melanoma cells was > 1000 nM.

On to `O=C(NC1CN(CCF)C1)c1c(F)cncc1Nc1ccc(I)cc1F` [Compound 9, 3-fluoro-5-((2-fluoro-4-iodophenyl)amino)-N-(1-(2-fluoroethyl)azetidin-3-yl)isonicotinamide], for which the GI50 in the data set on HT-29 colon cancer cells is < 100 nM.

As to `C#Cc1ccc(Nc2cncc(F)c2C(=O)NC2CN(CC)C2)c(F)c1` [Compound 12, N-(1-ethylazetidin-3-yl)-3-((4-ethynyl-2-fluorophenyl)amino)-5-fluoroisonicotinamide], the GI50 with A375 melanoma cells and with HT-29 colon cancer cells was 100 to 1000 nM each time.

As to `O=C(NC1CNC1)c1c(F)c(F)c(F)c(F)c1Nc1ccc(I)cc1F` [Compound 4, N-(azetidin-3-yl)-2,3,4,5-tetrafluoro-6-((2-fluoro-4-iodophenyl)amino)benzamide], the concentration for 50% growth inhibition (GI50) in the data set with A375 melanoma cells is 100 to 1000 nM; in the data set on HT-29 colon cancer cells, > 1000 nM.

For `O=C(O)CCN1CC(NC(=O)c2ccncc2Nc2ccc(I)cc2F)C1` [Compound 18, 3-(3-(3-((2-fluoro-4-iodophenyl)amino)isonicotinamido)azetidin-1-yl)propanoic acid], the GI50 with A375 melanoma cells was > 1000 nM.

Turning to `O=C(NC1CNC1)c1c(Cl)cncc1Nc1ccc(I)cc1F` [Compound 13, N-(azetidin-3-yl)-3-chloro-5-((2-fluoro-4-iodophenyl)amino)isonicotinamide], in the data set on A375 melanoma cells, the GI50 was < 100 nM. For the same compound, in the data set with P-glycoprotein (MDR1), the efflux ratio at 120 min came out at 11.8, the Papp A→B at 120 min was determined as 4.3 ×10⁻⁶ cm/s and the Papp B→A at 120 min turned out to be 50.8 ×10⁻⁶ cm/s.

For the compound `O=C(NC1CNC1)c1ccncc1Nc1ccc(I)cc1F` [Compound 15, N-(azetidin-3-yl)-3-((2-fluoro-4-iodophenyl)amino)isonicotinamide], the GI50 in the data set with HT-29 colon cancer cells is < 100 nM.

Consider `C#Cc1ccc(Nc2cncc(F)c2C(=O)NC2CNC2)c(F)c1` [Compound 11, N-(azetidin-3-yl)-3-((4-ethynyl-2-fluorophenyl)amino)-5-fluoroisonicotinamide], for which, in the data set with A375 melanoma cells, the GI50 is < 100 nM. Also, the GI50 in the data set on HT-29 colon cancer cells is < 100 nM. In the data set on P-glycoprotein (MDR1), the efflux ratio at 120 min is 4.08, the Papp A→B at 120 min was determined as 14.6 ×10⁻⁶ cm/s and the Papp B→A at 120 min was found to be 59.5 ×10⁻⁶ cm/s. Besides, in data set [1], the efflux ratio at 120 min came to 2.33, the Papp A→B at 120 min stood at 8.79 ×10⁻⁶ cm/s and the Papp B→A at 120 min stood at 20.5 ×10⁻⁶ cm/s. Moreover, in data set [2], the F is given as 93.1 ± 6.0%, the Vd stood at 67.7 ± 13.9 L/kg, the half-life was 542 ± 41.4 min and the clearance came to 86 ± 12 mL/min/kg. In data set [2], the AUC was determined as 4550 ± 301 ng·h/mL, the Cmax is 1700 ± 95 ng/mL and the Tmax turned out to be 40.2 ± 17.4 min.

For `O=C(NC1CNC1)c1c(F)cncc1Nc1ccc(Br)cc1Cl` [Compound 14, N-(azetidin-3-yl)-3-((4-bromo-2-chlorophenyl)amino)-5-fluoroisonicotinamide], the results for the GI50 with A375 melanoma cells and in the data set on HT-29 colon cancer cells were 100 to 1000 nM and > 1000 nM, respectively.

On to `O=C(NC1CNC1)c1c(F)cncc1Nc1ccc(I)cc1F` [Compound 5, N-(azetidin-3-yl)-3-fluoro-5-((2-fluoro-4-iodophenyl)amino)isonicotinamide], for which the GI50 in the data set on A375 melanoma cells was < 100 nM. Further, the GI50 in the data set on HT-29 colon cancer cells was < 100 nM. In the data set with P-glycoprotein (MDR1), the efflux ratio at 120 min was 3.42, the Papp A→B at 120 min was 10.5 ×10⁻⁶ cm/s and the Papp B→A at 120 min is 36 ×10⁻⁶ cm/s.

In the data set with A375 melanoma cells, `O=C(O)CCCN1CC(NC(=O)c2ccncc2Nc2ccc(I)cc2F)C1` [Compound 19, 4-(3-(3-((2-fluoro-4-iodophenyl)amino)isonicotinamido)azetidin-1-yl)butanoic acid] yielded a GI50 of 100 to 1000 nM.

With `O=C(NC1CCCNC1)c1c(F)cc(F)cc1Nc1ccc(I)cc1F` (stereo not shown) [Compound 3, 2,4-difluoro-6-((2-fluoro-4-iodophenyl)amino)-N-(piperidin-3-yl)benzamide], the GI50 in the data set on A375 melanoma cells was > 1000 nM.

With `CN1CC(NC(=O)c2c(F)cncc2Nc2ccc(I)cc2F)C1` [Compound 7, 3-fluoro-5-((2-fluoro-4-iodophenyl)amino)-N-(1-methylazetidin-3-yl)isonicotinamide], the concentration for 50% growth inhibition (GI50) with A375 melanoma cells is < 100 nM. Further, in the data set on P-glycoprotein (MDR1), the efflux ratio at 120 min worked out at 0.58, the Papp A→B at 120 min was determined as 32.5 ×10⁻⁶ cm/s and the Papp B→A at 120 min is 19 ×10⁻⁶ cm/s.

For the compound `O=C(NC1CCNC1)c1c(F)cc(F)cc1Nc1ccc(I)cc1F` (stereo not shown) [Compound 2, 2,4-difluoro-6-((2-fluoro-4-iodophenyl)amino)-N-(pyrrolidin-3-yl)benzamide], the GI50 in the data set on A375 melanoma cells was > 1000 nM.

The record behind these values is patent US20240083844A1, “KINASE INHIBITORS AND USES THEREOF” (ABM Therapeutics Corporation, priority 2020, published 2024).
